Assay results from EP3095787A1, “[…] ACTIVE COMPOUNDS AS DAG-LIPASE INHIBITORS” (Universiteit Leiden, priority 2015, dated 2016).

Biological target: T1, FAAH (Mus musculus, UniProt O08914)
T1 construct: For gel based ABPP experiments mouse brain proteome (2.0 mg/mL, 20 µL) was preincubated; from tissue; host or cells: mouse brain proteome
T1 sequence (O08914 1-579): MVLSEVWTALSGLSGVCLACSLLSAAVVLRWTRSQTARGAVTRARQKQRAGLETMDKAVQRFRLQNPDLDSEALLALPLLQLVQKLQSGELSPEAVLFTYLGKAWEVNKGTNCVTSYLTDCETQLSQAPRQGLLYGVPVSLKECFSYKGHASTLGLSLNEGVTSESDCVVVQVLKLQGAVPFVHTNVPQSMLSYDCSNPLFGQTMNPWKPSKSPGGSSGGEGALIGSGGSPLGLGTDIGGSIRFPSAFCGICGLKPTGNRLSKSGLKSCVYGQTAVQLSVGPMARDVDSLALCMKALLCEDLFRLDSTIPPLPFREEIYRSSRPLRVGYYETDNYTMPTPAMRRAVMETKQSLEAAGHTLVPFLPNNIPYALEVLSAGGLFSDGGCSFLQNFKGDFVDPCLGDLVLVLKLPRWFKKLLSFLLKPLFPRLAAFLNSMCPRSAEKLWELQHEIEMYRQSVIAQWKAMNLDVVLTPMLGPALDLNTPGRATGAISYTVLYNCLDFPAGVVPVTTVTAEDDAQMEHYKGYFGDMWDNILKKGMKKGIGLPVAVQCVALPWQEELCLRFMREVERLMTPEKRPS
Experiment: Gel based competitive ABPP selectivity assay with TAMRA-FP in mouse brain proteome (FAAH band)
Assay type: biochemical
Details: 10 µM inhibitor; TAMRA-FP 500 nM; mouse brain proteome; vehicle set to 100%
Description: For gel based ABPP experiments mouse brain proteome (2.0 mg/mL, 20 µL) was preincubated for 30 min with vehicle (DMSO) or compound to be tested in 0.5 µL DMSO at rt. And subsequently treated with 500 nM (final concentration) TAMRA-FP (TAMRA-FP was bought at Thermo Fischer) for 15 minutes at rt. The reactions were quenched with 10 µL standard 3 x SDS page sample buffer. The samples were directly loaded and resolved on SDS page gel (10 % acrylamide). The gels were scanned with a ChemiDoc MP sytem (Biorad, Cy 3 settings, 605/50 filter) and analyzed using Image Lab 4.1.
The percentage effect on FAAH was determined by measuring the integrated optical intensity of the band corresponding to FAAH (∼ 63 kD for mouse) using Image lab software. This activity was corrected for the total protein loading per lane as determined by coomassie staining and imaging with a ChemiDoc™ MP sytem (Biorad) followed by determination of the integrated optical intensity per lane by using Image Lab 4.1 software. The intensity of the protein bands from the samples treated with vehicle was set to 100%. […] N/A means less than 50% probe displacement at 10 µM inhibitor concentration.

Row | Structure (SMILES) | FAAH ABPP (10 µm) % Eff.
1 | O=C(CCCCCc1ccccc1)c1nc2ncc(-c3cccc(Cl)c3)cc2o1 [Compound 39, 1-(6-(3-chlorophenyl)oxazolo[4,5-b]pyridin-2-yl)-6-phenylhexan-1-one] | N/A (N/A means less than 50% probe displacement at 10 µM inhibitor concentration)
2 | Cc1cccc(-c2cnc3nc(C(=O)CCCCCc4ccccc4)oc3c2)c1 [Compound 55, 6-phenyl-1-(6-(m-tolyl)oxazolo[4,5-b]pyridin-2-yl)hexan-1-one] | N/A (N/A means less than 50% probe displacement at 10 µM inhibitor concentration)
3 | Cc1ccccc1-c1cnc2nc(C(=O)CCCCCc3ccccc3)oc2c1 [Compound 54, 6-phenyl-1-(6-(o-tolyl)oxazolo[4,5-b]pyridin-2-yl)hexan-1-one] | N/A (N/A means less than 50% probe displacement at 10 µM inhibitor concentration)
4 | Cc1ccc(-c2cnc3nc(C(=O)CCCCC(F)(F)F)oc3c2)cc1 [Compound 43, 6,6,6-trifluoro-1-(6-(p-tolyl)oxazolo[4,5-b]pyridin-2-yl)hexan-1-one] | N/A (N/A means less than 50% probe displacement at 10 µM inhibitor concentration)
5 | O=C(CCCCCc1ccccc1)c1nc2ncc(-c3ccncc3)cc2o1 [Compound 37, 6-phenyl-1-(6-(pyridin-4-yl)oxazolo[4,5-b]pyridin-2-yl)hexan-1-one] | N/A (N/A means less than 50% probe displacement at 10 µM inhibitor concentration)
6 | O=C(CCCCCc1ccccc1)c1nc2ncc(-c3ccccc3F)cc2o1 [Compound 57, 1-(6-(2-fluorophenyl)oxazolo[4,5-b]pyridin-2-yl)-6-phenylhexan-1-one] | N/A (N/A means less than 50% probe displacement at 10 µM inhibitor concentration)
7 | Cc1ccc(-c2cnc3nc(C(=O)CCC(F)(F)F)oc3c2)cc1 [Compound 42, 4,4,4-trifluoro-1-(6-(p-tolyl)oxazolo[4,5-b]pyridin-2-yl)butan-1-one] | N/A (N/A means less than 50% probe displacement at 10 µM inhibitor concentration)
8 | Cc1ccc(-c2cnc3nc(C(=O)CCc4ccccc4)oc3c2)cc1 [Compound 35, 3-phenyl-1-(6-(p-tolyl)oxazolo[4,5-b]pyridin-2-yl)propan-1-one] | N/A (N/A means less than 50% probe displacement at 10 µM inhibitor concentration)
9 | O=C(CCCCCc1ccncc1)c1nc2ncc(-c3ccccc3F)cc2o1 [Compound 48, 1-(6-(2-fluorophenyl)oxazolo[4,5-b]pyridin-2-yl)-6-(pyridin-4-yl)hexan-1-one] | N/A (N/A means less than 50% probe displacement at 10 µM inhibitor concentration)
10 | Cc1ccc(-c2cnc3nc(C(=O)CCCc4ccccc4)oc3c2)cc1 [Compound 36, 4-phenyl-1-(6-(p-tolyl)oxazolo[4,5-b]pyridin-2-yl)butan-1-one] | N/A (N/A means less than 50% probe displacement at 10 µM inhibitor concentration)
11 | O=C(CCCCCc1ccccc1)c1nc2ncc(-c3nnn[nH]3)cc2o1 [Compound 45, 1-(6-(1H-tetrazol-5-yl)oxazolo[4,5-b]pyridin-2-yl)-6-phenylhexan-1-one] | N/A (N/A means less than 50% probe displacement at 10 µM inhibitor concentration)
12 | O=C(CCCCCc1ccccc1)c1nc2ncc(-c3cccc(F)c3)cc2o1 [Compound 52, 1-(6-(3-fluorophenyl)oxazolo[4,5-b]pyridin-2-yl)-6-phenylhexan-1-one] | N/A (N/A means less than 50% probe displacement at 10 µM inhibitor concentration)
13 | Cc1ccccc1-c1cnc2nc(C(=O)CCCCCc3ccc(F)cc3)oc2c1 [Compound 47, 6-(4-fluorophenyl)-1-(6-(o-tolyl)oxazolo[4,5-b]pyridin-2-yl)hexan-1-one] | N/A (N/A means less than 50% probe displacement at 10 µM inhibitor concentration)
14 | O=C(CCCCCc1ccccc1)c1nc2ncc(-c3cccs3)cc2o1 [Compound 44, 6-phenyl-1-(6-(thiophen-2-yl)oxazolo[4,5-b]pyridin-2-yl)hexan-1-one] | N/A (N/A means less than 50% probe displacement at 10 µM inhibitor concentration)
15 | N#Cc1ccc(-c2cnc3nc(C(=O)CCCCCc4ccccc4)oc3c2)cc1 [Compound 51, 4-(2-(6-phenylhexanoyl)oxazolo[4,5-b]pyridin-6-yl)benzonitrile] | N/A (N/A means less than 50% probe displacement at 10 µM inhibitor concentration)
16 | Cc1ccc(-c2cnc3nc(C(=O)Cc4ccccc4)oc3c2)cc1 [Compound 34, 2-phenyl-1-(6-(p-tolyl)oxazolo[4,5-b]pyridin-2-yl)ethan-1-one] | N/A (N/A means less than 50% probe displacement at 10 µM inhibitor concentration)
17 | Cn1cccc1-c1cnc2nc(C(=O)CCCCCc3ccccc3)oc2c1 [Compound 46, 1-(6-(1-methyl-1H-pyrrol-2-yl)oxazolo[4,5-b]pyridin-2-yl)-6-phenylhexan-1-one] | N/A (N/A means less than 50% probe displacement at 10 µM inhibitor concentration)
18 | O=C(CCCCCc1ccccc1)c1nc2ncc(-c3ccccc3Cl)cc2o1 [Compound 38, 1-(6-(2-chlorophenyl)oxazolo[4,5-b]pyridin-2-yl)-6-phenylhexan-1-one] | N/A (N/A means less than 50% probe displacement at 10 µM inhibitor concentration)
19 | COc1ccc(-c2cnc3nc(C(=O)CCCCCc4ccccc4)oc3c2)cc1 [Compound 41, 1-(6-(4-methoxyphenyl)oxazolo[4,5-b]pyridin-2-yl)-6-phenylhexan-1-one] | N/A (N/A means less than 50% probe displacement at 10 µM inhibitor concentration)
20 | O=C(CCCCCc1ccccc1)c1nc2ncc(-c3ccc(F)cc3)cc2o1 [Compound 58, 1-(6-(4-fluorophenyl)oxazolo[4,5-b]pyridin-2-yl)-6-phenylhexan-1-one] | N/A (N/A means less than 50% probe displacement at 10 µM inhibitor concentration)
21 | Cc1ccccc1-c1cnc2nc(C(=O)CCCCOc3ccc(F)cc3)oc2c1 [Compound 49, 5-(4-fluorophenoxy)-1-(6-(o-tolyl)oxazolo[4,5-b]pyridin-2-yl)pentan-1-one] | N/A (N/A means less than 50% probe displacement at 10 µM inhibitor concentration)
22 | O=C(CCCCCc1ccccc1)c1nc2ncc(-c3ccc(Cl)cc3)cc2o1 [Compound 40, 1-(6-(4-chlorophenyl)oxazolo[4,5-b]pyridin-2-yl)-6-phenylhexan-1-one] | N/A (N/A means less than 50% probe displacement at 10 µM inhibitor concentration)
23 | O=C(CCCCCc1ccccc1)c1nc2ncc(-c3ccccn3)cc2o1 [Compound 53, 6-phenyl-1-(6-(pyridin-2-yl)oxazolo[4,5-b]pyridin-2-yl)hexan-1-one] | N/A (N/A means less than 50% probe displacement at 10 µM inhibitor concentration)
24 | Cc1cccc(C)c1-c1cnc2nc(C(=O)CCCCCc3ccccc3)oc2c1 [Compound 50, 1-(6-(2,6-dimethylphenyl)oxazolo[4,5-b]pyridin-2-yl)-6-phenylhexan-1-one] | N/A (N/A means less than 50% probe displacement at 10 µM inhibitor concentration)
